Results reported in patent US11555006B2, “Elucidation of novel 13-series resolvins that increase with atorvastatin and clear infections” (The Brigham and Women's Hospital, Inc., priority 2015, dated 2023).
One block for each compound: values may come before it.

Key:
[1] = tested on: E. coli infections in mice; test: E. coli peritonitis in mice; format: in vivo; conditions: summary table of bioactions
Method: All animal experiments were conducted in accordance with the Harvard Medical Area Standing Committee on Animals (protocol no. 02570). Mice (male FvB, 6-8 weeks old, Charles River, fed lab diet containing essential fatty acids as from supplier) were anesthetized with isoflurane and microbial peritonitis initiated. Briefly, test compounds or vehicle were injected i.p. or i.v. 5 min prior to live E. coli (serotype 06:K2:H1; 1×10^5 or 1×10^7 CFU/mouse). At designated time intervals mice were harvested, blood was collected via cardiac puncture in heparin, and peritoneal exudates were collected in 4 ml of PBS. The cellular composition in the exudates was determined using Turks solution and light microscopy, and by flow cytometry. For flow cytometry, exudate cells were incubated with anti-mouse CD16/CD32 (eBiosciences, 20 min, 4° C., in PBS containing 5% fetal calf serum-staining solution), followed by incubation with FITC-conjugated anti-mouse Ly6G antibody (clone: 1A8, eBiosciences), PE-conjugated anti-mouse F4/80 antibody (clone:BM8, eBiosciences) and PerCP-Cy5.5-conjugated anti-mouse CD11b antibody (clone:M1/70, eBiosciences) for 30 min (4° C., in staining solution). To assess bacterial phagocytosis in peritoneal exudate leukocytes, exudate cells were incubated with PerCP-Cy5.5-conjugated anti-mouse CD11b antibody (30 min, 4° C., in staining solution), then fixed and permeabilized using BD Perm/Wash™ Buffer (BD Biosciences) following manufacturer's instructions and incubated with FITC-conjugated anti-E. coli antibody (GenTex, 30 min, 4° C., in BD Perm/Wash™ Buffer). Efferocytosis in infectious exudates was assessed by incubating exudate leukocytes with PE-conjugated anti-mouse F4/80 antibody (30 min, 4° C., in staining solution), then fixed and permeabilized using BD Perm/Wash™ Buffer (BD Biosciences) and incubated with FITC-conjugated anti-mouse Ly6G antibody (30 min, 4° C., in BD Perm/Wash™ Buffer). Body temperatures were assessed using an Infrared thermometer (Fluke). Bacterial counts in peripheral blood and inflammatory exudates were determined by overnight cultures (37° C.) of serially diluted samples on LB agar plates. Caspase 1 levels were assessed by incubation of exudate cells with PerCP-Cy5.5-conjugated anti-mouse CD11b antibody (30 min, 4° C., in staining solution), then fixed and permeabilized using BD Perm/Wash™ Buffer (BD Biosciences), incubated with anti-caspase 1 antibody (Abcam, 30 min, 4° C., in BD Perm/Wash™ Buffer) followed by anti-rabbit Alexa 488 conjugated antibody (Life Technologies, 30 min, 4° C., in BD Perm/Wash™ Buffer). IL-1β levels were determined in cell-free supernatants using an anti-mouse IL-1β ELISA (Abcam) following manufacturer's instructions. Lactate dehydrogenase activity was measured in cell-free supernatants assessing the formation of NADH from NAD+ using a Lactate Dehydrogenase Assay kit (Sigma) following manufacturer's instructions.
In select experiments resolution indices were calculated as in ^27. Ψmax, maximal PMN numbers in exudates; Tmax, time point when PMN numbers reach maximum; R50, 50% of maximal PMN numbers; T50, time point when PMN numbers reduce to 50% of maximum; Ri (resolution interval), T50-Tmax, time period when 50% PMN are lost from the exudates. To assess the proresolving actions of the test products, these were administered 12 h after E. coli (10^5 CFU) inoculation, and resolution indices were assessed.
For some experiments, mice were administered via i.p. injection RvT1, RvT2, RvT3 and RvT4 (that were isolated as detailed below and combined as a mixture at a ratio of 2:1:1:8 respectively) 2 h after E. coli inoculation. Blood and lungs were harvested 6 h after E. Coli inoculation. Blood was employed to determine peripheral blood eicosanoid levels as detailed below.

[2] = tested on: human neutrophils; test: Human neutrophil phagocytosis and ROS; format: cell-based; conditions: 1 pM-1.0 nM, n=4 donors
Method: Macrophages were prepared from peripheral blood mononuclear cells (PBMC) purchased from Children's Hospital Blood Bank, Boston, and phagocytosis was assessed as in^31. Briefly, macrophages (5×10^4 cells/well) were incubated with RvT1 (1 pM-10 nM), 1:1 mixture RvT2 and RvT3 (1 pM-10 nM), RvT4 (1 pM-10 nM) or vehicle (0.1% EtOH in DPBS) for 15 min at 37° C., then fluorescent labeled apoptotic cells were added and cells incubated 45 min at 37° C. Extracellular fluorescence was quenched using Trypan blue (1:15 dilution) and phagocytosis assessed using an M3 SpectraMax plate reader (Molecular Devices). […] Intracellular reactive oxygen species were determined by measuring fluorescence using an M3 SpectraMax plate reader. […] Extracellular fluorescence was then quenched using Trypan blue (1:15 dilution), and phagocytosis was assessed using an M3 SpectraMax plate reader.

[3] = tested on: human macrophages; test: Human macrophage phagocytosis, ROS and efferocytosis; format: cell-based
Method: Macrophages were prepared from peripheral blood mononuclear cells (PBMC) purchased from Children's Hospital Blood Bank, Boston, and phagocytosis was assessed as in^31. Briefly, macrophages (5×10^4 cells/well) were incubated with RvT1 (1 pM-10 nM), 1:1 mixture RvT2 and RvT3 (1 pM-10 nM), RvT4 (1 pM-10 nM) or vehicle (0.1% EtOH in DPBS) for 15 min at 37° C., then fluorescent labeled apoptotic cells were added and cells incubated 45 min at 37° C. Extracellular fluorescence was quenched using Trypan blue (1:15 dilution) and phagocytosis assessed using an M3 SpectraMax plate reader (Molecular Devices). In select experiments, macrophages (prepared as detailed above, 5×10^4 cells/well) or neutrophils (1×10^5 cells/well), obtained from human healthy volunteers and isolated as in ^31 in accordance with Partners Human Research Committee Protocol (number 1999P001297), were incubated with H2DCFDA (5 μM, 30 min, 37° C.), excess dye was washed off and cells incubated with RvT1 (1 pM-10 nM), 1:1 mixture RvT2 and RvT3 (1 pM-10 nM), RvT4 (1 pM-10 nM) or vehicle (0.1% EtOH in DPBS, 15 min, 37° C.), then incubated with E. coli (1:50 leukocytes to E. coli, 45 min, 37° C.). Intracellular reactive oxygen species were determined by measuring fluorescence using an M3 SpectraMax plate reader. To assess bacterial phagocytosis, macrophages (5×10^4 cells/well) or neutrophils (1×10^5 cells/well) were incubated with RvT1 (1 pM-10 nM), 1:1 mixture RvT2 and RvT3 (1 pM-10 nM), RvT4 (1 pM-10 nM) or vehicle (0.1% EtOH in DPBS, 15 min, 37° C.), then incubated with BacLight Green (Molecular Probes) labeled E. coli (1:50 leukocytes to E. coli, 45 min, 37° C.). Extracellular fluorescence was then quenched using Trypan blue (1:15 dilution), and phagocytosis was assessed using an M3 SpectraMax plate reader.

[4] = tested on: human macrophages; test: Human macrophage caspase 1, IL-1β and lactate dehydrogenase; format: cell-based
Method: Human macrophages (1.5×10^4 cells/well) were incubated with RvT1 (10 pM-10 nM), 1:1 mixture RvT2 and RvT3 (10 pM-10 nM), RvT4 (10 pM-10 nM) or vehicle (0.1% EtOH in DPBS, 15 min, 37° C.), then E. coli (7.5×10^5 cells/well, in DPBS, 16 h, 37° C.). Caspase 1 levels were assessed in macrophages by flow cytometry after cell fixing and permeabilization, staining with an anti-caspase 1 (Abcam; 4° C., 30 min) and anti-rabbit-Alexa 488 conjugated antibody (Molecular Probes; 4° C., 30 min). IL-1β levels were determined in cell-free supernatants using an anti-human IL-1β ELISA (eBiosciences) following manufacturer's instructions. Lactate dehydrogenase activity was measured in cell-free supernatants assessing the formation of NADH from NAD+ using a Lactate Dehydrogenase Assay kit (Sigma) following manufacturer's instructions.

[5] = target: T1, human recombinant COX-2 (Homo sapiens, UniProt P35354); test: n-3 DPA conversion by S-nitrosylated hrCOX-2; format: biochemical; conditions: hrCOX-2 incubated with S-nitrosoglutathione
T1 construct: purchased Cayman Chemicals
T1 sequence (P35354 18-604): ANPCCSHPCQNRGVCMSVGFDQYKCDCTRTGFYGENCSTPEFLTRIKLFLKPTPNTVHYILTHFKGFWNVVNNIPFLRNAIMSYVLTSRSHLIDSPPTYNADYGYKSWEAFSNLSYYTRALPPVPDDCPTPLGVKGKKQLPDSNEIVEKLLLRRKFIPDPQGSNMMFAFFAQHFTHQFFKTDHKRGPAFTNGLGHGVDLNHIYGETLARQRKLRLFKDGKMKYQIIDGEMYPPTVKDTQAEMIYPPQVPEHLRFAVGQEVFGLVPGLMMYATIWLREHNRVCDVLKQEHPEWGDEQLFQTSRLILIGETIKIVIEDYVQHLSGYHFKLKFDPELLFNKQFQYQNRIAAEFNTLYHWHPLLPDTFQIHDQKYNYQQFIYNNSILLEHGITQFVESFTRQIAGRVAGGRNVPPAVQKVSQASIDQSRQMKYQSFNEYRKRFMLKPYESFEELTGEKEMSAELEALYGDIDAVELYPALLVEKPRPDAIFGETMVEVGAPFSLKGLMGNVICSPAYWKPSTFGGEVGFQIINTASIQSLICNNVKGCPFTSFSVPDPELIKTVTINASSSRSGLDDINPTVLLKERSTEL
Method: In designated experiments, n-3 DPA was incubated with hrCOX2, hrCOX-2 that was previously incubated with S-nitrosoglutathione (30 min RT), prepared by incubating 100 mM glutathione with 100 mM sodium nitrite in 200 mM hydrochloric acid at RT as in ^34 or S-nitrosoglutathione. After 20 min the incubations were quenched with methanol and 13-HDPA levels were assessed using LC-MS-MS-based LM metabololipidomics.

[6] = target: T1, human recombinant COX-2; test: Recombinant enzyme incubations, Michaelis Menten kinetics; format: biochemical; conditions: n-3 DPA converted to 13R-HDPA by human recombinant COX-2
Method: Human recombinant COX-2 (10 units; Cayman Chemicals; in 0.1 M Tris-HCl, pH 8.0, 20 μM porcine hematin, 0.67 mM phenol as in ^33) was incubated with the indicated concentrations of AA or n-3 DPA (1 h, RT) and absorbance at 235 nm was investigated at 1 min intervals using a Cary UV-Vis Spectrophotometer (Agilent).

[7] = tested on: human neutrophil-endothelial cell co-incubations; test: Lipid mediator levels in human endothelial cell incubations and neutrophil-endothelial cell co-incubations; format: cell-based; conditions: neutrophil-endothelial cells, 1 μM precursor
Method: Prior to sample extraction, deuterated internal standards (d4-PGE2, d5-LXA4, d4-RvD2, d4-LTB4 and d8-5S-HETE) representing regions of interest in the chromatographic analysis (500 pg each) were added to facilitate quantification. Extracted samples were analyzed by a LC-MS-MS system, Qtrap 6500 (AB Sciex) equipped with a Shimadzu SIL-20AC autoinjector and LC-20AD binary pump (Shimadzu Corp.). An Agilent Eclipse Plus C18 column (100×4.6 mm×1.8 μm) was used with a gradient of methanol/water/acetic acid of 55:45:0.01 (vol:vol:vol) that was ramped to 85:15:0.01 (vol:vol:vol) over 10 min and then to 98:2:0.01 (vol:vol:vol) for the next 8 min. This was subsequently maintained at 98:2:0.01 (vol:vol:vol) for 2 min. The flow rate was maintained at 0.4 ml/min. To monitor and quantify the levels of lipid mediators, a multiple reaction monitoring (MRM) method was developed with signature ion fragments (m/z) for each molecule monitoring the parent ion (Q1) and a characteristic daughter ion (Q3). […] Calibration curves were determined using a mixture of lipid mediators obtained via total organic synthesis, where these lipid mediators were not available (RvT1, RvT2, RvT3, RvT4 and 13-HDPA); known mediators with similar chromatographic properties (RvD2 for RvT1, RvD1 for RvT2 and RvT3; RvD5 for RvT4; 13-HDHA for 13-HDPA) were used. […]

[8] = summary table, macrophages and neutrophils

SMILES: CCC(O)/C=C/C=C\C=C\C(O)C/C=C\C=C\C(O)CCCCCC(=O)O (stereo not drawn) [RvT1, 7,13,20-trihydroxy-docosapentaenoic acid]
In vivo: circulating platelet-leukocyte aggregates [1]: Reduces circulating platelet-
In vivo: exudate pro-inflammatory eicosanoid levels during infections [1]: Reduces exudate pro-
In vivo: infection induced hypothermia [1]: Protects against infection
In vivo: macrophage efferocytosis of apoptotic neutrophils [1]: Stimulates macrophage
In vivo: murine leukocyte phagocytosis of E. coli [1]: Stimulates murine leukocyte
In vivo: neutrophil recruitment during infections [1]: Limits neutrophil recruitment
In vivo: protective actions of atorvastatin in infections [1]: Elaborates the protective
In vivo: pyroptosis [1]: Reduces pyroptosis
increase in E. coli phagocytosis, human neutrophils [2]: 20-55%
increase in intracellular ROS, human neutrophils [2]: 20-40%
E. coli phagocytosis in human macrophages ([3]; 1 pM-10 nM): dose-dependently increased
efferocytosis of apoptotic neutrophils by human macrophages ([3]; 1 pM-10 nM): dose-dependently increased
intracellular reactive oxygen species (ROS) in human macrophages ([3]; 1 pM-10 nM): dose-dependently increased
In vitro: human macrophage efferocytosis of apoptotic neutrophils ([3]; summary table of bioactions): Stimulates human
In vitro: human macrophage and neutrophil intra-phagolysosomal ROS production [3, 8]: Stimulates human
In vitro: human macrophage and neutrophil phagocytosis of E. coli [3, 8]: Stimulates human
IL-1β expression, human macrophages ([4]; 10 pM-10 nM, E. coli 16 h): decreasing
caspase-1 expression, human macrophages ([4]; 10 pM-10 nM, E. coli 16 h): decreasing
extracellular lactate dehydrogenase activity, human macrophages ([4]; 10 pM-10 nM, E. coli 16 h): decreasing
In vitro: E. coli induced inflammasome components in human macrophages ([4]; summary table of bioactions): Reduces E. coli induced
In vitro: E. coli induced macrophage pyroptosis ([4]; summary table of bioactions): Reduces E. coli induced

13R-HDPA and hrCOX-2 catalytic activity compared to native COX-2 [5]: increased
SMILES: N[C@@H](CCC(=O)N[C@@H](CSN=O)C(=O)NCC(=O)O)C(=O)O [S-nitrosoglutathione]

Km [6]: 3.1 ± 1.3 µM
SMILES: CC/C=C\C/C=C\C/C=C\C/C=C\C/C=C\CCCCCC(=O)O [n-3 DPA, n-3 docosapentaenoic acid]
increase in RvT amounts on co-incubation with precursor [7]: 30-50%
